Measurements: patent US10350213B2 (AI Therapeutics, Inc., priority 2015, dated 2019)
Like-named read-outs stand apart in the source and are kept apart here.

Tests used:
Format in all cases: cell-based
[1] = tested on: CA46 (Human Burkitt's lymphoma); experiment: CellTiterGlo cell viability assay
Method: (§1) Briefly, test compounds (5 μl stock solution, 6×desired final well concentration) were dispensed to 384-well assay plates, TSC2−/− MEF cells (1000 cells per well in 25 μL of media) were added to the plates and the plates were incubated for 72 h (3 days) at 37° C. under an atmosphere of 5% CO2 in a humidified incubator for 3 days. Cell viability was determined with CellTiter-Glo® luminescence assay (Promega) per the manufacturer's instructions. Viability was expressed as a percentage of untreated control cells.
(§2) 35 cell lines were identified as sensitive to apilimod-induced cytotoxicity in this assay. The apilimod-sensitive cells included cells derived from several different cancers including non-Hodgkin's lymphoma, Hodgkin's lymphoma, colorectal cancer, and lung cancer. The most sensitive of those tested were non-Hodgkin's Lymphoma (NHL) cell lines. […] The only NHL subtype not sensitive in this assay was follicular.

[2] = tested on: CAMA1 (Human breast cancer); experiment: CellTiterGlo cell viability assay; conditions: CAMA-1
Method: as §1, §2

[3] = tested on: COLO-205 (Human Colorectal); experiment: CellTiterGlo cell viability assay
Method: as §1, §2

[4] = tested on: DLD-1 (Human colorectal cancer); experiment: CellTiterGlo cell viability assay
Method: as §1, §2

[5] = tested on: EB1 (Human Burkitt's lymphoma); experiment: CellTiterGlo cell viability assay
Method: as §1, §2

[6] = tested on: GA-10 (Human Burkitt's lymphoma); experiment: CellTiterGlo cell viability assay
Method: as §1, §2

[7] = tested on: GRANTA-519 (Human Mantle Cell Lymphoma); experiment: CellTiterGlo cell viability assay
Method: as §1, §2

[8] = tested on: H1693 (Human lung carcinoma); experiment: CellTiterGlo cell viability assay; conditions: NCI-H1693
Method: as §1, §2

[9] = tested on: H1734 (Human lung carcinoma); experiment: CellTiterGlo cell viability assay; conditions: NCI-H1734
Method: as §1, §2

[10] = tested on: HCT116 (Human colorectal cancer); experiment: CellTiterGlo cell viability assay; conditions: HCT-116
Method: as §1, §2

[11] = tested on: HD-MyZ (Human Hodgkin's lymphoma); experiment: CellTiterGlo cell viability assay
Method: as §1, §2

[12] = tested on: HDLM-2 (Human Hodgkin's lymphoma); experiment: CellTiterGlo cell viability assay
Method: as §1, §2

[13] = tested on: HH (Human T-cell lymphoma); experiment: CellTiterGlo cell viability assay
Method: as §1, §2

HT-29 (Human Colorectal) = experiment: CellTiterGlo cell viability assay
Method: as §1, §2

[14] = tested on: KARPAS-422 (Human Diffuse Large B Cell Lymphoma -GCB); experiment: CellTiterGlo cell viability assay; conditions: Human DLBCL-GCB
Method: as §1, §2

[15] = tested on: KG-1 (Human acute myelogenous leukemia); experiment: CellTiterGlo cell viability assay
Method: as §1, §2

[16] = tested on: L428 (Human Hodgkin's lymphoma); experiment: CellTiterGlo cell viability assay; conditions: L-428
Method: as §1, §2

[17] = tested on: L540 (Human Hodgkin's lymphoma); experiment: CellTiterGlo cell viability assay; conditions: L-540
Method: as §1, §2

LOVO (Human Colorectal) = experiment: CellTiterGlo cell viability assay
Method: as §1, §2

[18] = tested on: MDST8 (Human colorectal cancer); experiment: CellTiterGlo cell viability assay
Method: as §1, §2

[19] = tested on: NCI-H1650 (Human bronchioalveolar); experiment: CellTiterGlo cell viability assay
Method: as §1, §2

[20] = tested on: Namalwa (Human Burkitt's lymphoma); experiment: CellTiterGlo cell viability assay
Method: as §1, §2

[21] = tested on: OCI-Ly19 (Human Diffuse Large B Cell Lymphoma -GCB); experiment: CellTiterGlo cell viability assay; conditions: Human DLBCL-GCB
Method: as §1, §2

[22] = tested on: Pfeiffer (Human Diffuse Large B Cell Lymphoma -GCB); experiment: CellTiterGlo cell viability assay; conditions: Human DLBCL-GCB
Method: as §1, §2

[23] = tested on: RKO (Human colorectal cancer); experiment: CellTiterGlo cell viability assay
Method: as §1, §2

[24] = tested on: RL (Human Follicular B Cell Lymphoma); experiment: CellTiterGlo cell viability assay
Method: as §1, §2

[25] = tested on: Raji (Human Burkitt's lymphoma); experiment: CellTiterGlo cell viability assay
Method: as §1, §2

[26] = tested on: SUDHL-1 (Human Anaplastic Large Cell Lymphoma); experiment: CellTiterGlo cell viability assay; conditions: SU-DHL-1
Method: as §1, §2

[27] = tested on: SUDHL-10 (Human Diffuse Large B Cell Lymphoma -GCB); experiment: CellTiterGlo cell viability assay; conditions: SU-DHL10, Human DLBCL-GCB
Method: as §1, §2

[28] = tested on: SW1573 (Human bronchioalveolar); experiment: CellTiterGlo cell viability assay
Method: as §1, §2

SW480 (Human Colorectal) = experiment: CellTiterGlo cell viability assay
Method: as §1, §2

[29] = tested on: Toledo (Human Diffuse Large B Cell Lymphoma -GCB); experiment: CellTiterGlo cell viability assay; conditions: Human DLBCL-GCB
Method: as §1, §2

[30] = tested on: SUDHL-4 (Human Diffuse Large B Cell Lymphoma -GCB); experiment: CellTiterGlo cell viability assay
[31] = tested on: PANC1 (Human pancreatic cancer); experiment: CellTiterGlo cell viability assay; conditions: PANC-1
[32] = tested on: 22RV1 (Human prostate cancer); experiment: CellTiterGlo cell viability assay
[33] = tested on: TSC2−/− mouse embryonic fibroblasts (TSC2−/− MEF) cells; experiment: High throughput cell viability screen (CellTiter-Glo); conditions: 72 h
Method: as §1

Cc1cccc(/C=N/Nc2cc(N3CCOCC3)nc(OCCc3ccccn3)n2)c1 [apilimod]
IC50 [1]: > 10000 nM | IC50 [2]: > 10000 nM | IC50 [3]: 380 nM | IC50 [4]: > 5000 nM | IC50 [5]: 174 nM | IC50 [6]: 382 nM | IC50 [7]: > 10000 nM | IC50 [8]: 2000 nM | IC50 [9]: 1500 nM | IC50 [10]: 125 nM | IC50 [11]: > 1000 nM | IC50 [12]: > 1000 nM | IC50 [13]: 3300 nM | IC50 (HT-29 (Human Colorectal)): > 10000 nM | IC50 [14]: > 10000 nM | IC50 [15]: > 2500 nM | IC50 [16]: 10000 nM | IC50 [17]: > 1000 nM | IC50 (LOVO (Human Colorectal)): > 10000 nM | IC50 [18]: 1000 nM | IC50 [19]: > 20000 nM | IC50 [20]: 600 nM | IC50 [21]: 380 nM | IC50 [22]: 2620 nM | IC50 [23]: > 5000 nM | IC50 [24]: > 10000 nM | IC50 [25]: > 10000 nM | IC50 [26]: 590 nM | IC50 [27]: 20 nM | IC50 [28]: > 20000 nM | IC50 (SW480 (Human Colorectal)): 90 nM | IC50 [29]: 270 nM | IC50 ([30]; Homo sapiens, 72 h, SU-DHL-4, three-day assay, read-out: IC50 (nM) SU-DHL-4): 23 nM | IC50 ([30]; Homo sapiens, SU-DHL-4, 72 h, SUDHL-4, 3-day CellTiterGlo assay, read-out: IC50): 50 nM | IC50 ([30]; SU-DHL-4, SUDHL-4, Human DLBCL-GCB, read-out: IC50): 25 nM | IC50 [31]: > 2000 nM | IC50 [32]: > 5000 nM | viability at 0.5 µM ([33]; MEF-EV, 0.5 μM, Mean+/−StDev, n=3, read-out: cell viability (percentage of untreated control cells)): 2.16% | viability at 5 µM ([33]; MEF-EV, 5 μM, Mean+/−StDev, n=3, read-out: cell viability (percentage of untreated control cells)): 1.94% | IC50 ([33]; TSC2−/− MEF cells, 10 point dose-response): 19.5 nM
